Laboratory results: US20260167638A1, “PHARMACEUTICAL COMPOUND, SALTS THEREOF, FORMULATIONS THEREOF, AND METHODS OF MAKING AND USING SAME” (Genentech, Inc., priority 2018, published 2026)
In brackets after ≈: the same amount, converted by molar mass. Several values for one entry are separate records, joined by “and”; a condition that tells them apart may be missing. Equal entries are not always repeated.

What was measured:
[1] = Experimental determination of the pKa; type: physicochemical
[2] = Solubility in pure water at 25° C. with PXRD of solid residues; type: physicochemical; settings: for pH (24 hrs) / pH (1 hr): pH of solubility sample; for pH (24 hrs) / pH (1 hr) / S 24 hrs / S 1 hr: pure water, 25° C.; for pH (1 hr) / S 1 hr: one hour; for S 24 hrs: 24 hours equilibration
Method: Using a similar strategy as described above, these salts were prepared by evaporation from a solution of free base and acid in a solvent (e.g., methanol-dichloromethane 1:1, ethyl acetate-dichloromethane 1:2, isopropanol, and the like). If necessary, an amorphous salt produced in this way was crystallized by stirring the amorphous material in an appropriate solvent (e.g., ethyl acetate, acetonitrile, and the like).

[3] = Dissolution and precipitation in pH 6.5 phosphate buffer at 37° C. containing HPMC; type: physicochemical; settings: aqueous buffer
From the text: The inclusion of HPMC in the tablet of Example 16 was to maintain the supersaturation of Compound I API after its mono-tosylate salt dissolves. […]

[4] = Example 21 crossover pharmacokinetics of mono-tosylate and di-tosylate tablets in fasted dogs; type: in vivo, beagle dogs; settings: for Individual plasma concentration of Compound I: individual dogs 1-5; for Individual plasma concentration of Compound I / Mean plasma concentration of Compound I: phase 2, di-tosylate tablet 200 mg PO; for AUC0-last / AUC0-rt / Cmax / tmax: Example 21, fasted dogs, 200 mg tablet PO
Method: Pharmacokinetics parameters of formulations of Compound I and its salts in dogs were determined by orally administering a test formulation tablet at 200 mg of active (Compound I or salt) per dog.
Blood samples were taken at various times after administration, plasma prepared, and submitted to analysis for parent drug using a qualified LC-MS-MS assay. Pharmacokinetics parameters derived from the plasma analytical data were determined using non-compartmental analysis.
Pharmacokinetics of Compound I were determined in pentagastrin-pretreated male beagle dogs following a single oral (PO) administration at 200 mg/tablet per dog in a 2-phase crossover designed study, with a washout period of at least 7 days in between each phase. Five male, non-naive, purebred beagle dogs were used in each phase of the 2-phase crossover study. All dogs were pretreated with pentagastrin (6 μg/kg intramuscular administrations) approximately 30 minutes before test article administration.
Two tablet formulations (mono-tosylate and di-tosylate, as described above) of test article were assessed. Animals were fasted overnight prior to PO dosing through approximately 4 hours post-dose. The tablet was administered orally, followed by approximately 10 mL of reverse osmosis water. Phase 1 animals were given tablets containing Compound I mono-tosylate, and phase 2 animals were given tablets containing Compound I di-tosylate salt. Blood samples were collected pre-dose and at 0.25, 0.5. 1. 2, 4, 8, 24, 36, and 48 hours after the oral dose. Plasma was harvested, and the concentration of Compound I in each plasma sample was determined by an LC/MS/MS assay. The assay lower limit of quantitation was 20 ng/mL for Compound I. Mean Compound I concentrations measured in plasma were used to construct semi-logarithmic plasma concentration-time curves (FIG. 1). Pharmacokinetic analysis was performed using non-compartmental methods.

[5] = Water sorption / dynamic vapor sorption (DVS) hygroscopicity; type: physicochemical
Method: The pKa value of Compound I free base was calculated (ACD Labs pKa DB, v10.0) as 2.12±0.33. Therefore, Compound I free base was considered as a very weak base that could be protonated by strong acids. […] A sample of Compound I free base was analyzed by powder x-ray diffraction and found to be crystalline without any readily detectable amorphous content. […] (onset temperature).
The maximum water uptake for the amorphous salt was about 40% whereas the maximum water uptake for the crystalline di-hydrochloride salt was higher, with about 54% uptake.
The hygroscopic nature of the besylate salt was examined by dynamic vapor sorption analysis (DVS). […] Below 80% relative humidity not much water was adsorbed.

[6] = Thermal stability of salt; type: physicochemical
From the text: It was produced in a crystalline form that was easy to dry, as the residual solvent content of the obtained sample was low. The particle size distribution and crystal habits found were acceptable.

[7] = Table 5: free base and crystalline salt forms
[8] = Table 4: free base and amorphous salt forms

Compound: Cn1cc(-c2cn(-c3ccc(OC(F)(F)F)cc3)c(=O)c3ncn(C)c23)cn1 [Compound I, 1-methyl-7-(1-methyl-1H-pyrazol-4-yl)-5-(4-(trifluoromethoxy)phenyl)-1,5-dihydro-4H-imidazo[4,5-c]pyridin-4-one]
- pKa [1]: 2.5
- Solubility (24 hours) [2, 7]: 57 µg/mL
- solubility at 24 h ([2]; water, 25 °C, water, thermodynamic from solid, Table 4: free base and amorphous salt forms): 57 µg/mL
- solubility [3]: ~80 µg/mL (≈ 205 µM)

Compound: Cc1ccc(S(=O)(=O)O)cc1.Cc1ccc(S(=O)(=O)O)cc1.Cn1cc(-c2cn(-c3ccc(OC(F)(F)F)cc3)c(=O)c3ncn(C)c23)cn1 [Di-tosylate]
- Individual plasma concentration of Compound I ([4]; 0.25 hours, fasted dogs, listed as Compound I di-tosylate salt): 1020 ng/mL and 146 ng/mL and 309 ng/mL and 29.1 ng/mL and 670 ng/mL
- Mean plasma concentration of Compound I ([4]; 0.25 hours, mean, fasted dogs): 536 ng/mL
- Individual plasma concentration of Compound I ([4]; 0.5 hours, fasted dogs, listed as Compound I di-tosylate salt): 7120 ng/mL and 1820 ng/mL and 3500 ng/mL and 636 ng/mL and 2610 ng/mL
- Mean plasma concentration of Compound I ([4]; 0.5 hours, mean, fasted dogs): 3760 ng/mL
- Individual plasma concentration of Compound I ([4]; 1 hour, fasted dogs, listed as Compound I di-tosylate salt): 8040 ng/mL and 6510 ng/mL and 9340 ng/mL and 1600 ng/mL and 6140 ng/mL
- Mean plasma concentration of Compound I ([4]; 1 hour, mean, fasted dogs): 7510 ng/mL
- Individual plasma concentration of Compound I ([4]; 2 hours, fasted dogs, listed as Compound I di-tosylate salt): 8810 ng/mL and 11200 ng/mL and 13400 ng/mL and 1580 ng/mL and 8110 ng/mL
- Mean plasma concentration of Compound I ([4]; 2 hours, mean, fasted dogs): 10400 ng/mL
- Individual plasma concentration of Compound I ([4]; 4 hours, fasted dogs, listed as Compound I di-tosylate salt): 6820 ng/mL and 10500 ng/mL and 13100 ng/mL and 1040 ng/mL and 6440 ng/mL
- Mean plasma concentration of Compound I ([4]; 4 hours, mean, fasted dogs): 9220 ng/mL
- Individual plasma concentration of Compound I ([4]; 8 hours, fasted dogs, listed as Compound I di-tosylate salt): 2700 ng/mL and 5620 ng/mL and 5860 ng/mL and 368 ng/mL and 2040 ng/mL
- Mean plasma concentration of Compound I ([4]; 8 hours, mean, fasted dogs): 4060 ng/mL
- Individual plasma concentration of Compound I ([4]; 24 hours, fasted dogs, listed as Compound I di-tosylate salt): 231 ng/mL and 1800 ng/mL and 530 ng/mL and 35.0 ng/mL and 30.0 ng/mL
- Mean plasma concentration of Compound I ([4]; 24 hours, mean, fasted dogs): 648 ng/mL
- Individual plasma concentration of Compound I ([4]; 36 hours, fasted dogs, listed as Compound I di-tosylate salt): BLQ (4×) and 273 ng/mL
- Mean plasma concentration of Compound I ([4]; 36 hours, mean, fasted dogs): 273 ng/mL
- Individual plasma concentration of Compound I ([4]; 48 hours, fasted dogs, listed as Compound I di-tosylate salt): BLQ (4×) and 21.5 ng/mL
- Mean plasma concentration of Compound I ([4]; 48 hours, mean, fasted dogs): 21.5 ng/mL
- AUC0-last ([4]; individual subjects): 62700 ng·h/mL and 129000 ng·h/mL and 113000 ng·h/mL and 9680 ng·h/mL and 47200 ng·h/mL
- AUC0-rt ([4]; individual subjects): 64100 ng·h/mL and 129000 ng·h/mL and 116000 ng·h/mL and 9890 ng·h/mL and 47300 ng·h/mL
- Cmax ([4]; individual subjects): 8810 ng/mL and 11200 ng/mL and 13400 ng/mL and 1600 ng/mL and 8110 ng/mL
- tmax ([4]; individual subjects): 2.00 h and 1.00 h
- AUC0-last ([4]; mean): 88000 ng·h/mL
- AUC0-rt ([4]; mean): 89100 ng·h/mL
- Cmax ([4]; mean): 10400 ng/mL
- tmax ([4]; mean): 2.00 h
- Individual plasma concentration of Compound I ([4]; Pre-dose, fasted pentagastrin-pretreated dogs): BLQ
- Mean plasma concentration of Compound I ([4]; Pre-dose, mean, fasted dogs): BLQ

Compound: Br.Br.Cn1cc(-c2cn(-c3ccc(OC(F)(F)F)cc3)c(=O)c3ncn(C)c23)cn1 [di-HBr crystalline]
- Solubility (24 hours) [2, 7]: 480 µg/mL
- pH (24 hrs) [2]: 1.6
- pH (1 hr) [2]: 1.6
- S 24 hrs [2]: 0.48 mg/mL
- S 1 hr [2]: 0.54 mg/mL

Compound: Cl.Cl.Cn1cc(-c2cn(-c3ccc(OC(F)(F)F)cc3)c(=O)c3ncn(C)c23)cn1 [di-HCl crystalline]
- Solubility (24 hours) [2, 7]: 760 µg/mL
- pH (24 hrs) [2]: 1.5
- pH (1 hr) [2]: 1.3
- S 24 hrs [2]: 0.76 mg/mL
- S 1 hr [2]: 1.14 mg/mL

Compound: Cn1cc(-c2cn(-c3ccc(OC(F)(F)F)cc3)c(=O)c3ncn(C)c23)cn1.Cn1cc(-c2cn(-c3ccc(OC(F)(F)F)cc3)c(=O)c3ncn(C)c23)cn1.O=S(=O)(O)CCS(=O)(=O)O [hemi-edisylate]
- reversibility of water adsorption within the timeframe of observation [5]: not reversible
- Solubility (24 hours) [2, 7]: 990 µg/mL
- pH (24 hrs) [2]: 1.48
- pH (1 hr) [2]: 1.42
- S 24 hrs [2]: 0.99 mg/mL
- S 1 hr [2]: 1.09 mg/mL

Compound: Cn1cc(-c2cn(-c3ccc(OC(F)(F)F)cc3)c(=O)c3ncn(C)c23)cn1.Cn1cc(-c2cn(-c3ccc(OC(F)(F)F)cc3)c(=O)c3ncn(C)c23)cn1.O=S(=O)(O)c1cccc2c(S(=O)(=O)O)cccc12 [hemi-napadisylate]
- reversibility of water adsorption within the timeframe of observation [5]: not reversible
- Solubility (24 hours) [2, 7]: 1830 µg/mL
- pH (24 hrs) [2]: 1.53
- pH (1 hr) [2]: 1.53
- S 24 hrs [2]: 1.83 mg/mL
- S 1 hr [2]: 2.76 mg/mL

Compound: Br.Cn1cc(-c2cn(-c3ccc(OC(F)(F)F)cc3)c(=O)c3ncn(C)c23)cn1 [mono-HBr amorphous]
- Solubility (24 hours) [2, 8]: 620 µg/mL
- pH (24 hrs) [2]: 1.6
- S 24 hrs [2]: 0.62 mg/mL

Compound: Br.Cn1cc(-c2cn(-c3ccc(OC(F)(F)F)cc3)c(=O)c3ncn(C)c23)cn1 [mono-HBr crystalline]
- pH (24 hrs) [2]: 1.9
- S 24 hrs [2]: 0.31 mg/mL

Compound: Cl.Cn1cc(-c2cn(-c3ccc(OC(F)(F)F)cc3)c(=O)c3ncn(C)c23)cn1 [mono-HCl amorphous]
- Solubility (24 hours) [2, 8]: 700 µg/mL
- pH (24 hrs) [2]: 1.6
- S 24 hrs [2]: 0.70 mg/mL

Compound: Cl.Cn1cc(-c2cn(-c3ccc(OC(F)(F)F)cc3)c(=O)c3ncn(C)c23)cn1 [mono-HCl crystalline]
- pH (24 hrs) [2]: 1.6
- S 24 hrs [2]: 0.42 mg/mL

Compound: Cn1cc(-c2cn(-c3ccc(OC(F)(F)F)cc3)c(=O)c3ncn(C)c23)cn1.O=[N+]([O-])O [mono-nitrate amorphous]
- pH (24 hrs) [2]: 1.9
- S 24 hrs [2]: 0.33 mg/mL

Compound: Cn1cc(-c2cn(-c3ccc(OC(F)(F)F)cc3)c(=O)c3ncn(C)c23)cn1.O=[N+]([O-])O [mono-nitrate crystalline]
- pH (24 hrs) [2]: 1.8
- pH (1 hr) [2]: 1.8
- S 24 hrs [2]: 0.38 mg/mL
- S 1 hr [2]: 0.42 mg/mL

Compound: Cn1cc(-c2cn(-c3ccc(OC(F)(F)F)cc3)c(=O)c3ncn(C)c23)cn1.O=S(=O)(O)O [mono-sulfate amorphous]
- Solubility (24 hours) [2, 8]: 840 µg/mL
- pH (24 hrs) [2]: 1.4
- pH (1 hr) [2]: 1.2
- S 24 hrs [2]: 0.84 mg/mL

Compound: Cn1cc(-c2cn(-c3ccc(OC(F)(F)F)cc3)c(=O)c3ncn(C)c23)cn1.O=S(=O)(O)O [mono-sulfate crystalline]
- Solubility (24 hours) [2, 7]: 1540 µg/mL
- pH (24 hrs) [2]: 1.2
- pH (1 hr) [2]: 1.1
- S 24 hrs [2]: 1.54 mg/mL
- S 1 hr [2]: 1.73 mg/mL
- thermal stability [6]: good thermal stability
